Measurements: patent publication US20140128352A1, “COMPOUNDS AND METHODS FOR MODULATING MITOCHONDRIAL METABOLISM AND REACTIVE OXYGEN SPECIES PRODUCTION” (Buck Institute for Research on Aging, priority 2012, published 2014)
Read-outs that look alike come from different tables or passages of the source.

Assays:
[1] = target: T1, flavin binding site of complex I (IF) (Rattus norvegicus, UniProt Q5XIH3); experiment: High-throughput screen: ROS production from flavin binding site of complex I (IF); assay type: biochemical; conditions: for inhibition at 2.5 µM: Table 7, read-out: IF; for inhibition at 2.5 µM / IF: percent change in ROS from DMSO controls
T1 construct: freshly isolated muscle mitochondria were assayed; from tissue; host or cells: rat skeletal muscle mitochondria (Wistar, Harlan Laboratories)
T1 sequence (Q5XIH3 21-464 limits assumed, one chain of several): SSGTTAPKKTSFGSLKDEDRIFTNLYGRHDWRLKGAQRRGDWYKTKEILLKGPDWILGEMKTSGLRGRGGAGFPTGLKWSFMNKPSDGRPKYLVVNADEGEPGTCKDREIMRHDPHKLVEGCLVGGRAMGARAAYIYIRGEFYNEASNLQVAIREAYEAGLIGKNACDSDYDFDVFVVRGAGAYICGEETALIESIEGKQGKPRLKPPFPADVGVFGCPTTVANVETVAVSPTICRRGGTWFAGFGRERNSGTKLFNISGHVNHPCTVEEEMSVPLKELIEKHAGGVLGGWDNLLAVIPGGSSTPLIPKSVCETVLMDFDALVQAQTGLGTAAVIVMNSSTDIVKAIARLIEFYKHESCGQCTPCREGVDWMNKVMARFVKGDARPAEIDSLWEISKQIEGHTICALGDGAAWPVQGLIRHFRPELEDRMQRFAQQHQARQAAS

[2] = system: mitochondrial membrane potential (ΔΨm); experiment: Membrane potential (ΔΨm) counterscreen with TMRM; conditions: malate, nigericin
[3] = system: ubiquinone binding site of complex I (IQ); experiment: High-throughput screen: ROS production from ubiquinone binding site of complex I (IQ), isolated skeletal muscle mitochondria; assay type: biochemical, rat; conditions: percent change in ROS from DMSO controls
[4] = target: T2, glycerol-3-phosphate dehydrogenase (GPDH) (Rattus norvegicus, UniProt P35571); experiment: High-throughput screen: ROS production from glycerol-3-phosphate dehydrogenase (GPDH); assay type: biochemical; design: inhibition: dose or concentration left out as unconfirmed; conditions: for inhibition: Table 7; for inhibition / GPDH: percent change in ROS from DMSO controls; for inhibition at 2.5 µM: Table 6, 25 mM glycerol phosphate, rotenone, antimycin A, malonate, myxothiazol, compounds 2.5 μM, scaled to IQ positive controls, read-out: % Reduction in ROS Production (GPDH)
T2 construct: The activity of GPDH in intact mitochondria (0.3 mg/mL) was measured; from tissue; host or cells: rat skeletal muscle mitochondria (Wistar, Harlan Laboratories)
T2 sequence (P35571 43-727): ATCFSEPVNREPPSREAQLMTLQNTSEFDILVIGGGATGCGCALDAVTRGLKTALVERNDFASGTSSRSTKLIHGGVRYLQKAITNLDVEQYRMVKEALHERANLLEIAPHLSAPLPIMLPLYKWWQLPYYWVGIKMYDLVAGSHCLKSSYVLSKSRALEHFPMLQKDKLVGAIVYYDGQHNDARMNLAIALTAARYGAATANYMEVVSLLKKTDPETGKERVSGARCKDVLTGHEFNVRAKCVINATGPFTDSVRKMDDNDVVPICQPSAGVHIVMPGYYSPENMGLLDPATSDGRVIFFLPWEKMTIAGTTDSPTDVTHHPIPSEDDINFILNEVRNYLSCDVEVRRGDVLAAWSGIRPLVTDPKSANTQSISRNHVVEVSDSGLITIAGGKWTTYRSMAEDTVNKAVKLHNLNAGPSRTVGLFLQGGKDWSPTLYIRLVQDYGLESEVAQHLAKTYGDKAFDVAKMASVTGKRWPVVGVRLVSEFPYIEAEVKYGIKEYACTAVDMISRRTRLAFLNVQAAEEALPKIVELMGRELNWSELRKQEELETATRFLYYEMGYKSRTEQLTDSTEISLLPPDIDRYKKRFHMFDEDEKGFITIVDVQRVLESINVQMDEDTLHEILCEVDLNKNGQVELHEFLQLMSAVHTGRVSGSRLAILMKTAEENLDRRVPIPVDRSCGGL

[5] = target: T3, outer ubiquinone binding site of complex III (IIIQO) (Rattus norvegicus, UniProt P00159+P20788); experiment: High-throughput screen: ROS production from outer ubiquinone binding site of complex III (IIIQO); assay type: biochemical; conditions: for IIIQO: Table 8
T3 construct: freshly isolated muscle mitochondria were assayed; from tissue; host or cells: rat skeletal muscle mitochondria (Wistar, Harlan Laboratories)

[6] = target: T4, succinate dehydrogenase/complex II (SDH) (Rattus norvegicus, UniProt P21913+Q641Z9+Q6PCT8+Q920L2); experiment: High-throughput screen: ROS production from succinate dehydrogenase/complex II (SDH); assay type: biochemical; conditions: Table 7; percent change in ROS from DMSO controls
T4 construct: freshly isolated muscle mitochondria were assayed; from tissue; host or cells: rat skeletal muscle mitochondria (Wistar, Harlan Laboratories)
T4 sequence (Q920L2 35-656): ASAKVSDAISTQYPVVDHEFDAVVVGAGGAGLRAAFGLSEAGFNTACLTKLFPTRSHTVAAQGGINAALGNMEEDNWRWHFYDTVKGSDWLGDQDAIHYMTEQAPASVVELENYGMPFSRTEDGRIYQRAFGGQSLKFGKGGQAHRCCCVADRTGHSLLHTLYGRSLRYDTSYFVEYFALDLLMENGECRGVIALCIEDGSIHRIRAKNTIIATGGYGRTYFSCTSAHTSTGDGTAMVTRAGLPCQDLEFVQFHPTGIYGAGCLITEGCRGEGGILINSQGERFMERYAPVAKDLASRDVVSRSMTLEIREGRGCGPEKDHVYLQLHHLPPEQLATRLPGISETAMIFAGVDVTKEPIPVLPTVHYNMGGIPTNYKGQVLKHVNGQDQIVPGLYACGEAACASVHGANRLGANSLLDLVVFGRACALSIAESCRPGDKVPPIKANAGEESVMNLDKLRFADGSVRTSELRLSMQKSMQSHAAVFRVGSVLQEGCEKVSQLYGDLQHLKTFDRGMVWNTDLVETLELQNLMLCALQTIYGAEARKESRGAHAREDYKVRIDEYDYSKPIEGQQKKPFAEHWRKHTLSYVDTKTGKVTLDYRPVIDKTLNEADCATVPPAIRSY
T4 sequence (P21913 31-282): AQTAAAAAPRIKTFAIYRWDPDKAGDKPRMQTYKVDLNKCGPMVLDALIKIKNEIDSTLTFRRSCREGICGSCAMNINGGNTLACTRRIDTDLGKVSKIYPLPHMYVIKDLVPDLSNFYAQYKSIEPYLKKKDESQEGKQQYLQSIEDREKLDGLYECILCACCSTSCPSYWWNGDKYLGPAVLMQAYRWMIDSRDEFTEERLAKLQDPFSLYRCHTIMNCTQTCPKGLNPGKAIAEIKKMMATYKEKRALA
T4 sequence (Q641Z9 30-169 limits assumed): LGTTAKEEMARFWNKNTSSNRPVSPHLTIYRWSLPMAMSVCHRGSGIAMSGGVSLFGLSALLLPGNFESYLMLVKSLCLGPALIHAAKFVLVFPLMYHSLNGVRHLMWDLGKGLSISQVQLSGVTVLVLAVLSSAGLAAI
T4 sequence (Q6PCT8 57-159): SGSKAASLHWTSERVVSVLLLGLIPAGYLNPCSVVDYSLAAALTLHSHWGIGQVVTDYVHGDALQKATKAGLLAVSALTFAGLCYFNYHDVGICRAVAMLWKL
Description: Skeletal muscle mitochondria were isolated from 5-8 week old female Wistar rats (Harlan Laboratories). Minced muscle was homogenized in buffer containing bacterial protease Type VIII prior to differential centrifugation to separate mitochondria from other tissue components. Unless otherwise stated, freshly isolated muscle mitochondria were assayed in buffer containing 120 mM KCl, 5 mM HEPES, 1 mM EGTA, 0.3% (w/v) bovine serum albumin. Where indicated, CaCl2 was added to yield a final free concentration of 250 nM calcium at pH 7.0 at 37° C.
Just prior to use, plates were brought to room temperature and diluted 300-fold with standard buffer (13.3X=33.3 μM). To monitor the performance of each assay throughout screening and to provide intra-plate normalization reference points, DMSO negative controls and known mitochondrial inhibitor positive controls were included on each Master compound plate.
Total amounts of superoxide and H2O2 production were determined fluorometrically as H2O2, without distinguishing between them, in the presence of exogenous superoxide dismutase (25 units/mL final), horseradish peroxidase (1 unit/mL final), and Amplex UltraRed (25 μM final) as described (Affourtit, C. et al. (2012) Measurement of proton leak and electron leak in isolated mitochondria. Methods Mol. Biol. 810: 165-82). Just prior to use, a bulk 3.3X solution was made in standard buffer and distributed into a 2 mL deep well 96-well transfer plate.
To assess the effects of a compound on ROS production from succinate dehydrogenase/complex II (SDH), Start Solution containing 15 μM palmitoyl carnitine, 2.5 μM antimycin A and 2 μM myxothiazol was distributed into standard 96-well transfer plates. A Biomek FX workstation was programmed to dispense solutions into black 96-well assay plates. Solutions were dispensed to all assay plates in the following order: ROS Detection solution described in Example 3, Mitochondria solution described in Example 1 to a final concentration of 0.3 mg/ml, and Compound dilutions described in Example 2. Duplicate assay plates were made and each was initiated by the addition of 3.3X Start solution containing 15 μM palmitoyl carnitine, 2.5 μM antimycin A and 2 μM myxothiazol. Plates were incubated in the dark at room temperature for 30-40 minutes before acquiring endpoint fluorescence using a Victor 3V plate reader (Perkin Elmer) equipped with 550/590 nm excitation/emission filters.
The fluorescence values in each well were scaled as the percent change from the intra-plate DMSO controls with the appropriate inhibitor positive controls defined as −100%. Following initial scaling, intra-plate normalized values were subjected to Tukey's two-way median polish to remove row and column dependent positional effects (Malo et al., 2006).

[7] = Table 4, 5 mM succinate, 4 μM rotenone, 2.5 μM antimycin A, compounds 2.5 μM, percent change from DMSO, read-out: % Reduction in ROS production (IIIQO)
[8] = Table 7, percent change in ROS from DMSO controls, read-out: IIIQO
[9] = percent change in ROS from DMSO controls
[10] = Table 9, percent change in ROS from DMSO controls, read-out: IIIQo

C=C(C)CN(CC)Cc1cc([N+](=O)[O-])ccc1Cl [Compound 45]
inhibition at 2.5 µM [1]: -0.5%
IF ([1]; Table 8): 0.5
IF ([1]; Table 9): 0.5
ΔΨm ([2]; Table 8, glutamate): 0.3
ΔΨm ([2]; Table 9, glutamate): 0.3
IQ ([3]; Table 7): −0.2
IQ ([3]; Table 8): −0.2
IQ ([3]; Table 9): −0.2
inhibition [4]: -3.1%
GPDH ([4]; Table 8): 3.1
GPDH ([4]; Table 9): 3.1
inhibition at 2.5 µM [5, 7]: 20.2%
inhibition at 2.5 µM [5, 8]: 20.2%
IIIQO [5, 9]: −20.2
inhibition at 2.5 µM [5, 10]: 20.2%

CCCCN(Cc1ccccc1)Cc1cc(Cl)cc(Cl)c1O [Compound 38]
inhibition at 2.5 µM [1]: 1.8%
IF ([1]; Table 8): −1.8
IF ([1]; Table 9): −1.8
ΔΨm ([2]; Table 8, glutamate): 0.3
ΔΨm ([2]; Table 9, glutamate): 0.3
IQ ([3]; Table 7): −3.9
IQ ([3]; Table 8): −3.9
IQ ([3]; Table 9): −3.9
inhibition [4]: -3.7%
GPDH ([4]; Table 8): 3.7
GPDH ([4]; Table 9): 3.7
inhibition at 2.5 µM [5, 7]: 31.3%
inhibition at 2.5 µM [5, 8]: 31.3%
IIIQO [5, 9]: −31.3
inhibition at 2.5 µM [5, 10]: 31.3%

COc1cccc(CCNC2C3CC4CC(C3)CC2C4)c1 (stereo not drawn) [Compound 26]
inhibition at 2.5 µM [1]: 19.6%
IF ([1]; Table 8): −19.6
IF ([1]; Table 9): −19.6
ΔΨm ([2]; Table 8, glutamate): −0.7
ΔΨm ([2]; Table 9, glutamate): −0.7
IQ ([3]; Table 7): −0.8
IQ ([3]; Table 8): −0.8
IQ ([3]; Table 9): −0.8
inhibition [4]: 3.3%
GPDH ([4]; Table 8): −3.3
GPDH ([4]; Table 9): −3.3
inhibition at 2.5 µM [5, 8]: 1.8%
IIIQO [5, 9]: −1.8
inhibition at 2.5 µM [5, 10]: 1.8%

COC(=O)c1ccc(CN(CCc2ccccc2)Cc2ccccc2)cc1 [Compound 43]
inhibition at 2.5 µM [1]: 4.4%
IF ([1]; Table 8): −4.4
IF ([1]; Table 9): −4.4
ΔΨm ([2]; Table 8, glutamate): 0.6
ΔΨm ([2]; Table 9, glutamate): 0.6
IQ ([3]; Table 7): −0.5
IQ ([3]; Table 8): −0.5
IQ ([3]; Table 9): −0.5
inhibition [4]: -3.4%
GPDH ([4]; Table 8): 3.4
GPDH ([4]; Table 9): 3.4
inhibition at 2.5 µM [5, 7]: 23.2%
inhibition at 2.5 µM [5, 8]: 23.2%
IIIQO [5, 9]: −23.2
inhibition at 2.5 µM [5, 10]: 23.2%

COC(=O)CCC(=O)Nc1ccc(C)cc1 [Compound 53]
inhibition at 2.5 µM [1]: -1.3%
IQ ([3]; Table 7): 0.1
inhibition at 2.5 µM [6]: 0.3%
inhibition at 2.5 µM [4]: 0%
inhibition [4]: -0.9%
inhibition at 2.5 µM [5, 8]: -0.8%

O=C(Nc1ccc(-c2nc3ccccc3[nH]2)cc1)c1ccco1 [Compound 63]
inhibition at 2.5 µM [1]: -0.9%
IQ ([3]; Table 7): −6.9
inhibition at 2.5 µM [6]: -3.5%
inhibition at 2.5 µM [4]: 1.7%
inhibition [4]: -8.2%
inhibition at 2.5 µM [5, 8]: -1.8%

O=C(O)CCC(=O)Nc1ccc(Cl)cc1 [Compound 58]
inhibition at 2.5 µM [1]: -0.1%
IQ ([3]; Table 7): −6.4
inhibition at 2.5 µM [6]: -1.5%
inhibition at 2.5 µM [4]: -0.2%
inhibition [4]: 1.2%
inhibition at 2.5 µM [5, 8]: -0.8%

O=C(O)CCC(=O)Nc1ccc(-c2nc3cc(C(=O)c4ccccc4)ccc3[nH]2)cc1 [Compound 69]
inhibition at 2.5 µM [1]: 1.8%
IQ ([3]; Table 7): −20.1
inhibition at 2.5 µM [6]: 6.3%
inhibition at 2.5 µM [4]: 32.1%
inhibition [4]: 26%
inhibition at 2.5 µM [5, 8]: -5.5%

CCN1CCN(C/C=C/c2ccc(N(C)C)cc2)CC1 [Compound 48]
inhibition at 2.5 µM [1]: 6.5%
IF ([1]; Table 8): −6.5
IF ([1]; Table 9): −6.5
ΔΨm ([2]; Table 8, glutamate): 0.0
ΔΨm ([2]; Table 9, glutamate): 0.0
IQ ([3]; Table 7): −2.9
IQ ([3]; Table 8): −2.9
IQ ([3]; Table 9): −2.9
inhibition at 2.5 µM [4]: 13.4%
inhibition [4]: 13.4%
GPDH ([4]; Table 8): −13.4
GPDH ([4]; Table 9): −13.4
inhibition at 2.5 µM [5, 8]: 5.7%
IIIQO [5, 9]: −5.7
inhibition at 2.5 µM [5, 10]: 5.7%

CCCCN(Cc1ccccc1)Cc1cc(OC)c(OC)cc1[N+](=O)[O-] [Compound 79]
% Reduction in ROS production (IF) ([1]; Table 3, 5 mM glutamate, 5 mM malate, 4 μM rotenone, compounds 2.5 μM, percent change from DMSO, positive control −100%): −17%
IF ([1]; Table 8): −17
ΔΨm ([2]; Table 8, glutamate): 1
IQ ([3]; Table 8): 0
GPDH ([4]; Table 8): −1
% Reduction in ROS production (IIIQO) ([5]; Table 4, 5 mM succinate, 4 μM rotenone, 2.5 μM antimycin A, compounds 2.5 μM, percent change from DMSO): −19%
IIIQO [5, 9]: −19

O=C(Nc1ccc(-c2nc3ccccc3[nH]2)cc1)C1CC1 [Compound 66]
inhibition at 2.5 µM [1]: 0.2%
IQ ([3]; Table 7): −2.8
inhibition at 2.5 µM [6]: 2.5%
inhibition at 2.5 µM [4]: 1.9%
inhibition [4]: -1.8%
inhibition at 2.5 µM [5, 8]: 1.2%

Fc1ccc(N2CCN(CC(c3ccccc3)c3ccccc3)CC2)cc1 [Compound 39]
inhibition at 2.5 µM [1]: 0.9%
IF ([1]; Table 8): −0.9
IF ([1]; Table 9): −0.9
ΔΨm ([2]; Table 8, glutamate): 0.5
ΔΨm ([2]; Table 9, glutamate): 0.5
IQ ([3]; Table 7): 2.7
IQ ([3]; Table 8): 2.7
IQ ([3]; Table 9): 2.7
inhibition [4]: 4.7%
GPDH ([4]; Table 8): −4.7
GPDH ([4]; Table 9): −4.7
inhibition at 2.5 µM [5, 7]: 26.8%
inhibition at 2.5 µM [5, 8]: 26.8%
IIIQO [5, 9]: −26.8
inhibition at 2.5 µM [5, 10]: 26.8%

CCCCCCNC(=O)CCC(=O)O [Compound 54]
inhibition at 2.5 µM [1]: -8%
IQ ([3]; Table 7): 2.3
inhibition at 2.5 µM [6]: -4.4%
inhibition at 2.5 µM [4]: -0.9%
inhibition [4]: -3.3%
inhibition at 2.5 µM [5, 8]: -2.5%

Cc1ccc2[nH]c(-c3ccc(NC(=O)CCC(=O)O)cc3)nc2c1 [Compound 70]
inhibition at 2.5 µM [1]: 2.2%
IQ ([3]; Table 7): −0.2
inhibition at 2.5 µM [6]: -4.6%
inhibition at 2.5 µM [4]: 26%
inhibition [4]: 0%
inhibition at 2.5 µM [5, 8]: 0.4%

CCCCN(Cc1ccccc1)Cc1cccc(Oc2ccc(Cl)cc2)c1 [Compound 44]
inhibition at 2.5 µM [1]: -3.1%
IF ([1]; Table 8): 3.1
IF ([1]; Table 9): 3.1
ΔΨm ([2]; Table 8, glutamate): 1.0
ΔΨm ([2]; Table 9, glutamate): 1.0
IQ ([3]; Table 7): 0.4
IQ ([3]; Table 8): 0.4
IQ ([3]; Table 9): 0.4
inhibition [4]: 3.4%
GPDH ([4]; Table 8): −3.4
GPDH ([4]; Table 9): −3.4
inhibition at 2.5 µM [5, 7]: 23.1%
inhibition at 2.5 µM [5, 8]: 23.1%
IIIQO [5, 9]: −23.1
inhibition at 2.5 µM [5, 10]: 23.1%
